The assay concerns BDF1 mice, P388 leukemia ip, median survival T/C. The assay can be described thus: NCI In Vivo Anticancer Drug Screen. Data for tumor model P388 Leukemia (intraperitoneal) in B6D2F1 (BDF1) mice. Particulars: endpoint: median survival time, higher = longer survival. The method, boiled down:
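Antitumour effect was judged in vivo: survival in drug-treated mice, normalised to that of vehicle-dosed controls, gives the reported T/C.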

The mark [1] stands for this setting: dose: 12.5 mg/kg/injection, schedule: Q01DX009 (ip), vehicle: Klucel (hydroxypropylcellulose) (HPC).
The mark [2] stands for this setting: dose: 25.0 mg/kg/injection, schedule: Q01DX009 (ip), vehicle: Klucel (hydroxypropylcellulose) (HPC).
The mark [3] stands for this setting: dose: 100.0 mg/kg/injection, schedule: Q01DX009 (ip), vehicle: saline with Tween-80.
Where [4] appears, read: dose: 200.0 mg/kg/injection, schedule: Q01DX009 (ip), vehicle: saline with Tween-80.
Where [5] appears, read: dose: 100.0 mg/kg/injection, schedule: Q04DX003 (ip), vehicle: saline with Tween-80.
[6] abbreviates: dose: 100.0 mg/kg/injection, schedule: Q04DX003 (ip), vehicle: Klucel (hydroxypropylcellulose) (HPC).
The mark [7] stands for this setting: dose: 200.0 mg/kg/injection, schedule: Q04DX003 (ip), vehicle: Klucel (hydroxypropylcellulose) (HPC).
[8] abbreviates: dose: 400.0 mg/kg/injection, schedule: Q04DX003 (ip), vehicle: Klucel (hydroxypropylcellulose) (HPC).
Setting [9] is: dose: 200.0 mg/kg/injection, schedule: Q04DX003 (ip), vehicle: saline with Tween-80.
The mark [10] stands for this setting: dose: 400.0 mg/kg/injection, schedule: Q04DX003 (ip), vehicle: saline with Tween-80.

Structures are written as SMILES. “And” between values parts separate entries of the source, which are not always exact repeats. Equal values may be shown once. Toxic doses and inconclusive results are not listed.

As to `CCCCCCC(C)NCC(O)COc1cccc(C)c1` (stereo not given), the T/C is 113 % of control (dose: 3.12 mg/kg/injection, schedule: Q01DX009 (ip), vehicle: Klucel (hydroxypropylcellulose) (HPC)); 116 % of control under setting [1]; 120 % of control under setting [2].

Turning to `Cc1cc2c(c(O)c1CN1CCOCC1)C1=C(CCCC1)C(C)(C)O2`, the T/C reads like this: (dose: 1.0 mg/kg/injection, schedule: Q01DX001 (ip), vehicle: Klucel (hydroxypropylcellulose) (HPC)) 99 % of control; (dose: 2.0 mg/kg/injection, schedule: Q01DX001 (ip), vehicle: Klucel (hydroxypropylcellulose) (HPC)) 112 % of control; (dose: 4.0 mg/kg/injection, schedule: Q01DX001 (ip), vehicle: Klucel (hydroxypropylcellulose) (HPC)) 104 % of control; (dose: 8.0 mg/kg/injection, schedule: Q01DX001 (ip), vehicle: Klucel (hydroxypropylcellulose) (HPC)) 104 % of control; (dose: 16.0 mg/kg/injection, schedule: Q01DX001 (ip), vehicle: Klucel (hydroxypropylcellulose) (HPC)) 109 % of control; (dose: 32.0 mg/kg/injection, schedule: Q01DX001 (ip), vehicle: Klucel (hydroxypropylcellulose) (HPC)) 98 % of control. Also, the T/C by setting is: (dose: 64.0 mg/kg/injection, schedule: Q01DX001 (ip), vehicle: Klucel (hydroxypropylcellulose) (HPC)) 96 % of control; (dose: 128.0 mg/kg/injection, schedule: Q01DX001 (ip), vehicle: Klucel (hydroxypropylcellulose) (HPC)) 106 % of control; (dose: 256.0 mg/kg/injection, schedule: Q01DX001 (ip), vehicle: Klucel (hydroxypropylcellulose) (HPC)) 98 % of control.

`[Cl][Pt+2][Cl].[NH-]CC1(C[NH-])CCC1`: the T/C was 156 % of control (dose: 0.4 mg/kg/injection, schedule: Q01DX009 (ip), vehicle: suspension in saline); 154 % of control (dose: 0.79 mg/kg/injection, schedule: Q01DX009 (ip), vehicle: suspension in saline); 250 % of control (dose: 1.56 mg/kg/injection, schedule: Q01DX009 (ip), vehicle: suspension in saline); 250 % of control (dose: 3.12 mg/kg/injection, schedule: Q01DX009 (ip), vehicle: suspension in saline); 169 % of control (dose: 6.25 mg/kg/injection, schedule: Q01DX009 (ip), vehicle: suspension in saline); 104 % of control (dose: 12.5 mg/kg/injection, schedule: Q01DX009 (ip), vehicle: suspension in saline).

With `COc1ccc(C2(C#N)CCCC2)cc1`, the T/C reads like this: under setting [3], 100 % of control; under setting [4], 108 % of control; (dose: 400.0 mg/kg/injection, schedule: Q01DX009 (ip), vehicle: saline with Tween-80) 108 % of control.

For the molecule `CC1CC=C(C2CC(C)CC(N(C)C)C2=N)CC1` (stereo not given), the T/C (dose: 12.5 mg/kg/injection, schedule: Q01DX009 (sc), vehicle: olive oil, sesame oil, peanut oil) is 104 % of control; the T/C (dose: 25.0 mg/kg/injection, schedule: Q01DX009 (sc), vehicle: olive oil, sesame oil, peanut oil) was 109 % of control; the T/C (dose: 50.0 mg/kg/injection, schedule: Q01DX009 (sc), vehicle: olive oil, sesame oil, peanut oil) is 113 % of control; the T/C (dose: 100.0 mg/kg/injection, schedule: Q04DX003 (sc), vehicle: olive oil, sesame oil, peanut oil) is 91 % of control; the T/C (dose: 200.0 mg/kg/injection, schedule: Q04DX003 (sc), vehicle: olive oil, sesame oil, peanut oil) is 104 % of control; the T/C (dose: 400.0 mg/kg/injection, schedule: Q04DX003 (sc), vehicle: olive oil, sesame oil, peanut oil) was 116 % of control.

In the case of `O=NN(CCCl)C(=O)Nc1ccc(I)cc1`, the T/C by setting is: (dose: 0.44 mg/kg/injection, schedule: Q01DX009 (ip), vehicle: saline with Tween-80) 113 % of control; (dose: 0.66 mg/kg/injection, schedule: Q01DX009 (ip), vehicle: saline with Tween-80) 118 % of control; (dose: 0.75 mg/kg/injection, schedule: Q04DX003 (ip), vehicle: saline) 100 % of control; (dose: 0.9 mg/kg/injection, schedule: Q01DX009 (ip), vehicle: saline) 104 % of control; (dose: 1.5 mg/kg/injection, schedule: Q04DX003 (ip), vehicle: saline) 109 % of control; (dose: 3.0 mg/kg/injection, schedule: Q04DX003 (ip), vehicle: saline) 109 % of control. For the same molecule, the T/C reads like this: (dose: 3.6 mg/kg/injection, schedule: Q01DX009 (ip), vehicle: saline) 150 % of control; (dose: 44.0 mg/kg/injection, schedule: Q04DX003 (ip), vehicle: saline sonified) 150 % of control; (dose: 66.0 mg/kg/injection, schedule: Q04DX003 (ip), vehicle: saline sonified) 160 % of control; under setting [5], 215 % of control.

Regarding `C=CCOC(=O)c1ccco1`, the T/C by setting is: (dose: 6.25 mg/kg/injection, schedule: Q01DX009 (ip), vehicle: Klucel (hydroxypropylcellulose) (HPC)) 116 % of control; under setting [1], 108 % of control; under setting [2], 108 % of control; (dose: 50.0 mg/kg/injection, schedule: Q01DX009 (ip), vehicle: Klucel (hydroxypropylcellulose) (HPC)) 100 % of control.

Turning to `CCOC(=O)C1OC1(C)c1ccccc1` (stereo not given), the T/C (dose: 75.0 mg/kg/injection, schedule: Q01DX009 (ip), vehicle: Klucel (hydroxypropylcellulose) (HPC)) is 95 % of control; the T/C under setting [6] is 100 % of control and 103 % of control; the T/C (dose: 150.0 mg/kg/injection, schedule: Q01DX009 (ip), vehicle: Klucel (hydroxypropylcellulose) (HPC)) is 90 % of control; the T/C under setting [7] is 100 % of control and 111 % of control; the T/C (dose: 300.0 mg/kg/injection, schedule: Q01DX009 (ip), vehicle: Klucel (hydroxypropylcellulose) (HPC)) was 113 % of control; the T/C under setting [8] was 92 % of control and 104 % of control.

Take `COC(C)C(O)(C(N)=O)C(C)C` (stereo not given): the T/C was 95 % of control (dose: 100.0 mg/kg/injection, schedule: Q01DX009 (ip), vehicle: Klucel (hydroxypropylcellulose) (HPC)); 100 % of control under setting [6]; 86 % of control (dose: 200.0 mg/kg/injection, schedule: Q01DX009 (ip), vehicle: Klucel (hydroxypropylcellulose) (HPC)); 100 % of control under setting [7]; 90 % of control (dose: 400.0 mg/kg/injection, schedule: Q01DX009 (ip), vehicle: Klucel (hydroxypropylcellulose) (HPC)); 100 % of control under setting [8].

Regarding `O=C(Nc1ccc(C2=NCCN2)cc1)C1CCC(C(=O)Nc2ccc(C3=NCCN3)cc2)CC1` (stereo not given), the T/C is, setting by setting: under setting [5], 150 % of control; under setting [9], 179 % of control; (dose: 264.0 mg/kg/injection, schedule: Q04DX003 (ip), vehicle: saline with Tween-80) 228 % of control and 200 % of control; under setting [10], 225 % of control and 229 % of control and 240 % of control; (dose: 600.0 mg/kg/injection, schedule: Q04DX003 (ip), vehicle: saline with Tween-80) 240 % of control and 245 % of control.

For the molecule `O=C(Cl)C1CCCCC1`, the T/C is 100 % of control (dose: 50.0 mg/kg/injection, schedule: Q01DX009 (ip), vehicle: saline with Tween-80) and 104 % of control under setting [3].

Take `O=S(=O)(c1ccccc1)N1CCOC1=S`: the T/C under setting [5] was 114 % of control, the T/C under setting [9] is 95 % of control and the T/C under setting [10] is 95 % of control.

For `CCOC(=O)CCSCC(C)(C)C(=O)OCC`, the T/C (dose: 100.0 mg/kg/injection, schedule: Q04DX003 (ip), vehicle: saline) was 90 % of control; the T/C (dose: 200.0 mg/kg/injection, schedule: Q04DX003 (ip), vehicle: saline) is 100 % of control; the T/C (dose: 400.0 mg/kg/injection, schedule: Q04DX003 (ip), vehicle: saline) is 95 % of control.

`O=C(O)C1CC2CCC1C2` (stereo not given): the T/C runs as follows: (dose: 100.0 mg/kg/injection, schedule: Q01DX001 (ip), vehicle: saline with Tween-80) 100 % of control; (dose: 200.0 mg/kg/injection, schedule: Q01DX001 (ip), vehicle: saline with Tween-80) 95 % of control; (dose: 400.0 mg/kg/injection, schedule: Q01DX001 (ip), vehicle: saline with Tween-80) 100 % of control.

Regarding `O=C1c2ccccc2C(=O)c2c(Sc3ccccc3)cccc21`, the T/C under setting [4] was 95 % of control.

For the origin of these results see PubChem BioAssay AID328 (DTP/NCI, 2004).
